Values of other authors as cited in patent US20260315605A1, “PROTACS FOR ASK1 PROTEIN DEGRADATION: PREPARATION AND USE THEREOF” (COUNCIL OF SCIENTIFIC AND INDUSTRIAL RESEARCH, priority 2023, published 2026).

Experiments:
ASK1/MAPK pathway = conditions: Harrison et al. 2020
NASH patients = conditions: Phase III, Harrison et al. 2020

## Cc1cc(F)c(C(=O)Nc2cccc(-c3nncn3C(C)C)n2)cc1-n1cnc(C2CC2)c1 [selonsertib]
ASK1/MAPK pathway
  anti-fibrotic activity: promising anti-fibrotic activity
NASH patients
  clinical outcome, fibrosis improvement: failed in Phase III clinical trial of fibrosis improvement in NASH patients
